Where two headings read alike, the source gives them in different places.

Six molecules from US7582778B2, “Podophyllotoxin” (Universitatsklinikum Charite der Humboldt-Universitat zu, priority 2001, dated 2009) can be followed below.

Data set [1] has as its target MDR-1 p-glycoprotein (Homo sapiens, UniProt P08183). To be noted: MOVP-3 cells; for effect on the decrease in FL-1 signal (JC-1 efflux): coincubation with 3×10^−4 M.
Protocol: Samples incubated with 2 μM cyclosporin A were used as positive controls (data not shown). Cell fluorescence was recorded using a FAC Sort flow cytometer (Becton Dickinson) and JC-1 signals were detected on the FL1-channel (530 nm filter) for analysis of the dye monomer.
Data set [2] has as its system Molt-3/MDR-1 cells. To be noted: stable transfection with pMDR-IRESpuro.
Protocol: Stable transfection of MDR-1: The MDR-1 cDNA was kindly provided in a pUC based plasmid by C. Baum, University of Hamburg. For mammalian expression, the MDR-1 cDNA was cloned into the bicistronic eukaryotic expression plasmid pIRESpuro using NotI and BamHI restriction sites. pMDR-IRESpuro was transfected into Molt-3 cells by electroporation (960 μF, 250V). Stable transfectants were selected with 300 ng/ml puromycin.
OD values were plotted as a function of drug concentration and the curves were integrated using the softmax software to obtain the IC50 concentration values.
For data set [3], the system named is Hamms human colon carcinoma cells. The data set is described as follows: XTT cytotoxicity assay, Hamms. The data set is classed as cell-based.
Protocol: (§4) Cytotoxicity assay: Cytotoxicity was determined by the XTT tetrazolium/formazan assay as previously described (Scudiero D A, Shoemaker R H, Paull K D, et al. Evaluation of a soluble tetrazolium/formazan assay for cell growth and drug sensitivity in culture using human and other tumor cell lines. Cancer Res. 1988; 48:4827-4833.). Briefly, cells were seeded in 96 flat bottom well plates at a density of 10^4/well in 100 μl media and exposed to drug concentrations ranging from 10^−4 to 10^−12 M. At the indicated time points (6-72 hr), cell viability was assessed by adding 50 μl XTT-reagent (1 mg/ml in serum free RPMI) activated with 0.2% v/v PMS (1.53 mg/ml in PBS) incubated at 37° C. for 4 h. Plates were analyzed in a Thermomax (Molecular Devices) micro plate reader at 450 nm. OD values were plotted as a function of drug concentration and the curves were integrated using the softmax software to obtain the IC50 concentration values.
In data set [4] the test system is NXS2 murine neuroblastoma. Put plainly: XTT cytotoxicity assay, NXS2. The format is cell-based. How it is done:
(§1) The cytotoxic effect of ProVP-16 I and II was evaluated against a panel of cell lines by triplicate determinations of IC50 concentrations for both prodrugs against each cell line (A). […] Bars represent mean values ±SD.

Data set [5] concerns Molt-3 T-cell leukemia. Put plainly: XTT cytotoxicity assay, Molt-3. How it is done: as §1
At the time points indicated, cell viability was determined in triplicate by the XTT assay as described in Materials and Methods. […] Results were plotted as a semilogarithmic function of drug concentration.

Data set [6] has as its system MOVP-3 cells. The data set is described as follows: Cell cycle analysis (propidium iodide, FACS), MOVP-3. The format is cell-based, human. The note with it: 0.5 μM, up to 72 h. Here is the method: (§2) Cells were harvested at indicated time points (n=3), fixed, stained with propidium iodide and analyzed by FACS as described in Materials and Methods. Per cent cells in pre G1 (apoptosic cells) were calculated from DNA histograms.
(§3) Cell cycle analysis: Distinct phases of the cell cycle were determined in a standard assay using propidium iodide. […] At indicated time points, cells were harvested and fixed in 4.5 ml ethanol (75%, −20° C.) for at least 12 h (4° C.). Cells were washed in PBS (pH 7.4) and resuspended in 250 μl PBS containing RNAse (0.3 mg/ml) and propidium iodide (50 μg/ml) and incubated in the dark (30 min, RT). The DNA histograms defining distinct phases of the cell cycle were subsequently determined in duplicates by FACS analysis and average results were expressed as per cent.

Data set [7] has as its system CHO Chinese hamster ovary. The data set is described as follows: XTT cytotoxicity assay, CHO. The format is cell-based.
Protocol: as §4
Data set [8] has as its system multidrug resistant MOVP-3 cells. Put plainly: XTT cytotoxicity assay, multidrug resistant MOVP-3 subline. The note with it: for IC50: MOVP-3 cells; for cross resistance of MOVP-3 cells: from IC50 values MOVP-3 vs Molt-3. The data set is classed as cell-based, human. Here is the method:
MDR-1 gene expression was determined by RT-PCR analysis on total RNA isolated from MOVP-3 and Molt-3 cells, respectively (6A). Expression of GAPDH was used as a control for the integrity of the cDNA. […] (6C) Cross-resistance of MOVP-3 cells against MDR-1 drugs (doxorubicin, melphalan, vinblastine and paclitaxel) was calculated from IC50 values (n=3) as described in 6B).
Cells: Tumor cell lines were grown in RPMI, 10% FCS (Nalm-6, Reh, Molt-3, Jurkat, HL-60, K562, HeLa, CEM, A2780, SW480) or DMEM, 10% FCS (NXS2, SK-N-SH, HT-29) in the presence of 100 IU/ml penicillin/streptomycin (P/S) and propagated under standard tissue culture conditions (5% CO2, 37° C.). All cell lines were obtained from ATCC, Rockville, Md. except NXS2 which was previously described (Lode H N, Xiang R, Varki N M, Dolman C S, Gillies S D, Reisfeld R A. Targeted interleukin-2 therapy for spontaneous neuroblastoma metastases to bone marrow. Journal of the National Cancer Institute. 1997; 89:1586-1594.) and VCR100, ADR5000 and A2780 which were kindly provided by James Beck, Greifswald, Germany (Beck J, Handgretinger R, Dopfer R, Klingebiel T, Niethammer D, Gekeler V. Expression of mdrl, mrp, topoisomerase II alpha/beta, and cyclin A in primary or relapsed states of acute lymphoblastic leukaemias. Br J Haematol. 1995; 89:356-363; Beck J F, Bohnet B, Brugger D, et al. Expression analysis of protein kinase C isozymes and multidrug resistance associated genes in ovarian cancer cells. Anticancer Res. 1998; 18:701-705.).

The conditions of data set [9]: human serum, pH 7.3, 37° C.
The nature of data set [10]: Conversion of ProVP-16 I to ProVP-16 II under acid conditions (HPLC). The format is physicochemical. The note with it: acid conditions (THF, 2N HCL).
Protocol: ProVP-16 I was incubated in THF/2% HCl and samples were periodically analyzed by HPLC at the indicated time points (A). […] ProVP-16 I (3 mM) was incubated in PBS solutions and samples were periodically analyzed by HPLC. The percent conversion was calculated from areas under the curve determined by peak integration.
Data set [11] has as its system SW480 colon carcinoma. To be noted: SW480, vs VP-16. Here is the method: as §1
The conditions of data set [12]: for kobs: PBS buffer. Here is the method:
ProVP-16 I was incubated in THF/2% HCl and samples were periodically analyzed by HPLC at the indicated time points (A). Hydrolytic activation of ProVP-16 II was determined in phosphate buffered saline (PBS) a t the pH levels indicated (B). ProVP-16 I (3 mM) was incubated in PBS solutions and samples were periodically analyzed by HPLC. The percent conversion was calculated from areas under the curve determined by peak integration.

For data set [13], the system named is Molt-3 parental cells. Put plainly: Cell cycle analysis (propidium iodide, FACS), Molt-3. The note with it: Molt-3 cells, 0.5 μM, up to 72 h. The data set is classed as cell-based, human. How it is done:
as §2, §3

Data set [14] deals with porcine liver carboxyl ester hydrolase. The note with it: porcine liver carboxyl ester hydrolase, pH 7.3, 37° C.
Data set [15] concerns MOVP-3 primary tumors. Put plainly: Anti-tumor effect in a multidrug resistant T-cell leukemia xenograft model. The data set is classed as in vivo, SCID mice. To be noted: 15 mg/kg i.p. Here is the method:
The anti-tumor effect of ProVP-16 II therapy was determined in a multidrug resistant xenograft model (B,C). SCID mice (n=7) were injected s.c. with 5×10^6 MOVP-3 cells and primary tumors of 250 mm^3 average size were established 55 days after inoculation. […] Tumor growth was monitored by microcaliper measurements and tumor size was calculated as described in Materials and Methods (B). […] The body weight of treated animals was determined over time and calculated as per cent of body weight on day 57 (C).
Anti-tumor effect in a T-cell leukemia xenograft model: Primary tumors were induced by injection of 5×10^6 MOVP 3 cells in 100 μl PBS (pH 7.4) into the skin of the left lateral flank of each SCID mouse. Established primary tumors were palpable 55 days after injection. […] Each mouse received a total of 7 injections on days 55,57,59,69,71,87,90 after tumor cell inoculation. Primary tumor size was determined over time by micro caliper measurements and volumes were calculated according to ½×with^2×length. Body weight was determined on a standard digital scale.

How the values of data set [16] were obtained: The body weight was determined for each animal over time and calculated as per cent of total weight observed on day 0. An event as indicated by Kaplan Maier plots is defined by loss of body weight greater than 20%.
Body weights and survival were monitored over time.

Where [17] appears, read: Molt-3, time course, 48-72 h after incubation.
Where [18] appears, read: Molt-3 cells, resistance experiment (FIG. 4B).

Chain of MDR-1 p-glycoprotein (P08183 whole entry): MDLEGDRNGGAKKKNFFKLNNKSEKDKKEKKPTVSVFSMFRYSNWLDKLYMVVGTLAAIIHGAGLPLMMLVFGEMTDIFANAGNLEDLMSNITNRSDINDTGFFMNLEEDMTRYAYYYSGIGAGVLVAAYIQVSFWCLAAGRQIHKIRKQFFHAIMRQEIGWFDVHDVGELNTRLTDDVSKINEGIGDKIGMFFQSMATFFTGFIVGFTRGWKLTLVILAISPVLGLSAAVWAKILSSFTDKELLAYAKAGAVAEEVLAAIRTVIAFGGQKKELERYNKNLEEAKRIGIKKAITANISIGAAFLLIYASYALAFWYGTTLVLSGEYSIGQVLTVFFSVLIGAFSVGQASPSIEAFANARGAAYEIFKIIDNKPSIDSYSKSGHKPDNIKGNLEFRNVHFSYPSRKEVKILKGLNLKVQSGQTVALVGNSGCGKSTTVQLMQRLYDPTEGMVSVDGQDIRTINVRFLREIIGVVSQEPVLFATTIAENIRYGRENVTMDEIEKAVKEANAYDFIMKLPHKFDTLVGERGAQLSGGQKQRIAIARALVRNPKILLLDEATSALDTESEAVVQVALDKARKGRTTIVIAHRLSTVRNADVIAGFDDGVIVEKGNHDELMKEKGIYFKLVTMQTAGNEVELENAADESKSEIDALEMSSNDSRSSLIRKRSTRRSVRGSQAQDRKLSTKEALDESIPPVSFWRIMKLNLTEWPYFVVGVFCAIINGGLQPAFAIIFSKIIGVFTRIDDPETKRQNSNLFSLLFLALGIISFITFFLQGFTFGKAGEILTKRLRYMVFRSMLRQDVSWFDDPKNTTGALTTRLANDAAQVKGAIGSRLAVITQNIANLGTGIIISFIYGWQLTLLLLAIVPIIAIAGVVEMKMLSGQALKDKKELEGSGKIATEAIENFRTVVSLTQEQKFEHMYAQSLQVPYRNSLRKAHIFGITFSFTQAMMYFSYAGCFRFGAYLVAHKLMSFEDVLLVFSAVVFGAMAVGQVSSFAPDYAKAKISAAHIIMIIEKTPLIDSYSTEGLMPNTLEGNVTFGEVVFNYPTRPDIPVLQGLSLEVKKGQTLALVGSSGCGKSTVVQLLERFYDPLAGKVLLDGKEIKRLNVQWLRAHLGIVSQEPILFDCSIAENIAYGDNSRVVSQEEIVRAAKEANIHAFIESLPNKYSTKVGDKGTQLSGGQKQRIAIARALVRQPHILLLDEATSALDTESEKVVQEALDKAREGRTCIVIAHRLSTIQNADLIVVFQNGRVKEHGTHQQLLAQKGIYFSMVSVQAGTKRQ

`COc1cc(C2c3cc4c(cc3C(OC3OC5COC(C)OC5C(O)C3O)C3COC(=O)C23)OCO4)cc(OC)c1OC(=O)OCC1COC(C)(C)O1` (stereo not shown) [ProVP-16 I]: the “effect on the decrease in FL-1 signal (JC-1 efflux)” value in [1] is “abrogated”. Besides, the “lowest concentration inhibiting MDR-1 mediated efflux” value in data set [1] (data not shown) came out at 10 µM. Also, the “sensitivity / resistance of Molt-3/MDR-1 cells” value (“sensitivity / resistance” below) in [2] was “remained fully sensitive”. The “response to proetoposides compared with etoposide” value in data set [3], in [4] and in [7] was “responded equally well” in each case. In addition, the IC50 in data set [5] (setting [17]) was found to be 10 nM; in data set [5] (setting [18]), 20 nM; in data set [8], 20 nM. For the same molecule, the “onset of cytotoxic activity” value in data set [5] (Molt-3, time of incubation) is over 24 h. Also, the “cytotoxic effects at early incubation” value in data set [5] (Molt-3, up to 12 h of incubation) is reported as “absence of cytotoxic effects”. Moreover, the “induction of apoptosis (pre-G1 peak)” value in data set [6] was “very effective in inducing a steady increase in the pre-G1 peak”; in data set [13], “Induction of apoptosis was also demonstrated”. For the same molecule, in data set [8] (MOVP-3 vs Molt-3), the “resistance of MOVP-3 cells (IC50 MOVP-3÷IC50 Molt-3)” value is on record as “no significant difference”. Moreover, the kobs in [9] is recorded as 0.923 ± 0.046 10^−3-min^−1; in data set [12] (pH 5.0-10.0, 37° C.), “no conversion”; in [12] (pH 11.8, 37° C.), 8.333 ± 0.50 10^−3-min^−1; in [14], 48.89 ± 3.62 10^−3-min^−1. The t1/2 in data set [9] stood at 750.8 min; in [14], 14.2 min; in data set [14] (listed as Prodrug I) it was 14.17 min. Besides, in data set [10], the “degradation of the glycoside moiety” value was “about 10%”. The “time for conversion to ProVP-16 II” value in data set [10] is on record as at most 2 h. In addition, the “IC50 fold lower than parent compound” value in data set [11] is listed as 1000 fold. Moreover, the “conversion in PBS” value in data set [12] (PBS (pH 7.4, 37° C.)) was “no measurable conversion”. In data set [12] (basic buffer conditions (pH <10.0)), the “stability under basic buffer conditions” value is “inert”.
Regarding `COc1cc([C@@H]2c3cc4c(cc3[C@@H](O[C@@H]3O[C@@H]5CO[C@@H](C)O[C@H]5[C@H](O)[C@H]3O)[C@H]3COC(=O)[C@H]23)OCO4)cc(OC)c1O` [VP-16, etoposide, reference compound], the “effect on the decrease in FL-1 signal (JC-1 efflux)” value in data set [1] is given as “ineffective in modulating MDR-1 function”. In addition, in [2], the “sensitivity / resistance” value is listed as “resistance”. Besides, the anti-tumor response entry in data set [15] was “no anti-tumor response”. The “transient average weight loss” value in data set [15] came out at 20%. Besides, the half-inhibitory concentration (IC50) worked out at 65 nM in data set [5] (setting [17]), 20 nM in data set [5] (setting [18]) and 2000 nM in [8]. For the same molecule, the “induction of apoptosis (pre-G1 peak)” value in data set [6] is “ineffective to induce apoptosis”; in data set [13], “induce apoptosis in Molt-3 cells to a similar extent as ProVP-16 I and II”. For the same molecule, the resistance in vitro in [8] (MOVP-3 model with stably amplified MDR-1) is listed as 100 ×. For the same molecule, the “cross resistance of MOVP-3 cells” value in data set [8] is reported as “cross resistance”. In addition, in [16] (defined by a decrease in body weight <20%), the maximum tolerated dose turned out to be 20 mg/kg. Further, the “mice with a weight loss >20%” value in data set [16] (mouse, in vivo) is 5/6.
On to `COc1cccc2c1C(=O)c1c(O)c3c(c(O)c1C2=O)C[C@@](O)(C(=O)CO)C[C@@H]3O[C@H]1C[C@H](N)[C@H](O)[C@H](C)O1` [doxorubicin], for which, in data set [2], the “sensitivity / resistance” value is “resistance”. Also, in [8], the “cross resistance of MOVP-3 cells” value was “cross resistance”.
As for `N[C@@H](Cc1ccc(N(CCCl)CCCl)cc1)C(=O)O` [melphalan], the “cross resistance of MOVP-3 cells” value in [8] was “statistically significant”.
As to `CC(=O)O[C@H]1C(=O)[C@@]2(C)[C@H]([C@H](OC(=O)c3ccccc3)[C@]3(O)C[C@H](OC(=O)[C@H](O)[C@@H](NC(=O)c4ccccc4)c4ccccc4)C(C)=C1C3(C)C)[C@]1(OC(C)=O)CO[C@@H]1C[C@@H]2O` [paclitaxel], in data set [2], the “sensitivity / resistance” value is recorded as “resistance”. Further, the “cross resistance of MOVP-3 cells” value in data set [8] is “cross resistance”.
On to `CC[C@]1(O)C[C@@H]2CN(CCc3c([nH]c4ccccc34)[C@@](C(=O)OC)(c3cc4c(cc3OC)N(C)[C@H]3[C@@](O)(C(=O)OC)[C@H](OC(C)=O)[C@]5(CC)C=CCN6CC[C@]43[C@@H]65)C2)C1` [vinblastine], for which the “sensitivity / resistance” value in [2] was “resistance”. Also, the “cross resistance of MOVP-3 cells” value in data set [8] is “cross resistance”.
